Laboratory results as given in patent US9056875B2, “Substituted pyrazolo[3′,4′:4,5]thieno[2,3-C]pyridazin-3-amine analogs as positive allosteric modulators of the muscarinic acetylcholine receptor M4” (Vanderbilt University, priority 2012, dated 2015).
Read-outs that look alike come from different tables or passages of the source.

Target: T1, mAChR rM4 (Rattus norvegicus, UniProt P08485)
T1 construct: expressed in transfected cells
T1 sequence (P08485 1-478): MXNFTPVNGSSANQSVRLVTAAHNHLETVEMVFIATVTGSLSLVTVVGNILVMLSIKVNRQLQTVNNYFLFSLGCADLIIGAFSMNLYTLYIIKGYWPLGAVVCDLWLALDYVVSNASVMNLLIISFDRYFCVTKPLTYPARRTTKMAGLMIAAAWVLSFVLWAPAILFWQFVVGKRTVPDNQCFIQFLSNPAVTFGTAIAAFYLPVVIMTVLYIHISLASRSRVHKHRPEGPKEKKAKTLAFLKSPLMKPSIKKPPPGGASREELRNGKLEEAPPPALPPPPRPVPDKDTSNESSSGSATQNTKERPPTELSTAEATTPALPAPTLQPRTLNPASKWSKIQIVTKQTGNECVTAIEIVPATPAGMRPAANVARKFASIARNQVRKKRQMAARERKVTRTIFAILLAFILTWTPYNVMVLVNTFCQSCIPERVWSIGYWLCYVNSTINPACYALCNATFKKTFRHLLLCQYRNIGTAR
Assay: mAChR rM4 cell-based functional assay (calcium mobilization, potentiation of EC20 acetylcholine response)
Settings: for Emax at 30 µM: %ACh maximum at 30 μM; for EC50: rM4-transfected CHO-K1 cells, positive allosteric modulation of EC20 ACh response
Source text: Chinese hamster ovary (CHO-K1) cells stably expressing rat (r)M1 were purchased from the American Type Culture Collection and cultured according to their indicated protocol. CHO cells stably expressing human (h)M2, hM3, and hM5 were described previously (Levey A I, et al., (1991) J Neurosci 11:3218-3226.); hM1 and hM4 cDNAs were purchased from Missouri S&T cDNA Resource; rM4 cDNA was provided by T. I. Bonner (National Institutes of Health, Bethesda, Md.). rM2 and rM3 were cloned from a rat brain cDNA library and sequence verified. hM1, rM2, rM3, hM4, and rM4 cDNAs were used to stably transfect CHO-K1 cells purchased from the American Type Culture Collection using Lipofectamine® 2000. To make stable rM2, hM2, rM3, hM4, and rM4 cell lines for use in calcium mobilization assays, these cells also were stably transfected with a chimeric G-protein (Gqi5) (provided by B. R. Conklin, University of California, San Francisco) using Lipofectamine® 2000. rM1, hM1, rM3, hM3, rM5, and hM5 cells were grown in Ham's F-12 medium containing 10% heat-inactivated fetal bovine serum (FBS), 20 mM HEPES, and 50 μg/mL G418 sulfate. rM2-Gqi5, hM2-Gqi5, and hM4-Gqi5 cells were grown in the same medium also containing 500 μg/mL hygromycin B. Stable rM4-Gqi5 cells were grown in DMEM containing 10% heat-inactivated FBS, 20 mM HEPES, 400 μg/mL G418 sulfate, and 500 μg/mL Hygromycin B.
For high throughput measurement of agonist-evoked increases in intracellular calcium, CHO-K1 cells stably expressing the target muscarinic receptor were plated in growth medium lacking G418 and hygromycin at 15,000 cells/20 μL/well in Greiner 384-well black-walled, tissue culture (TC)-treated, clear-bottom plates (VWR). Cells were incubated overnight at 37° C. and 5% CO2. The next day, cells were washed using an ELX 405 (BioTek) with four washes (80 μL) of assay buffer then aspirated to 20 μL. Next, 20 μL of 16 μM Fluo-4/acetoxymethyl ester (Invitrogen, Carlsbad, Calif.) prepared as a 2.3 mM stock in DMSO and mixed in a 1:1 ratio with 10% (w/v) Pluronic F-127 and diluted in assay buffer was added to the wells and the cell plates were incubated for […] at 37° C. and 5% CO2. Dye was removed by washing with the ELX 405 (four 80 μL washes of assay buffer) then aspirated to 20 μL. Compound master plates were formatted in an 11 point CRC format (1:3 dilutions) in 100% DMSO with a starting concentration of 10 mM using the BRAVO liquid handler (Agilent). Test compound CRCs were then transferred to daughter plates (240 nL) using the Echo acoustic plate reformatter (Labcyte, Sunnyvale, Calif.) and then diluted into assay buffer (40 μL) to a 2× stock using a Thermo Fisher Combi (Thermo Fisher Scientific, Waltham, Mass.).
Calcium flux was measured using the Functional Drug Screening System (FDSS) 6000 (Hamamatsu Corporation, Tokyo, Japan) as an increase in the fluorescent static ratio. Compounds were applied to cells (20 μL, 2×) using the automated system of the FDSS 6000 at 4 s into the 300 s protocol and the data were collected at 1 Hz. At 144 s into the 300 s protocol, 10 μL of an EC20 concentration of the muscarinic receptor agonist acetylcholine was added (5×), followed by the addition of 12 μL an EC80 concentration of acetylcholine at the 230 s time point (5×). Agonist activity was analyzed as a concentration-dependent increase in calcium mobilization upon compound addition. Positive allosteric modulator activity was analyzed as a concentration-dependent increase in the EC20 acetylcholine response. Antagonist activity was analyzed as a concentration-dependent decrease in the EC80 acetylcholine response. Concentration-response curves were generated using a four-parameter logistical equation in XLfit™ curve fitting software (IDBS, Bridgewater, N.J.) for Excel (Microsoft, Redmond, Wash.) or Prism (GraphPad Software, Inc., San Diego, Calif.). […]

Row | Structure (SMILES) | Emax at 30 µM [%] | EC50 (read-out: EC50) [nM] | EC50 (read-out: pEC50 (converted)) [nM]
1 | COc1ccc(CNc2nn(C)c3c2sc2nnc(C)c(C)c23)cc1 [Compound 1, N-(4-methoxybenzyl)-1,7,8-trimethyl-1H-pyrazolo[3′,4′:4,5]thieno[2,3-c]pyridazin-3-amine] | 55 | 48 | –
2 | Cc1nnc2sc3c(NCc4ccc(S(C)(=O)=O)cc4)nn(C)c3c2c1C [Compound 2, 1,7,8-trimethyl-N-(4-(methylsulfonyl)benzyl)-1H-pyrazolo[3′,4′:4,5]thieno[2,3-c]pyridazin-3-amine] | 57 | 130 | –
3 | Cc1nnc2sc3c(NCC4CC4)nn(C)c3c2c1C [Compound 3, N-(cyclopropylmethyl)-1,7,8-trimethyl-1H-pyrazolo[3′,4′:4,5]thieno[2,3-c]pyridazin-3-amine] | 46 | 340 | –
4 | Cc1nnc2sc3c(NCc4ccco4)nn(C)c3c2c1C [Compound 4, N-(furan-2-ylmethyl)-1,7,8-trimethyl-1H-pyrazolo[3′,4′:4,5]thieno[2,3-c]pyridazin-3-amine] | 50 | 180 | –
5 | Cc1nnc2sc3c(NCc4ccc(F)c(S(C)(=O)=O)c4)nn(C)c3c2c1C [Compound 5, N-(4-fluoro-3-(methylsulfonyl)benzyl)-1,7,8-trimethyl-1H-pyrazolo[3′,4′:4,5]thieno[2,3-c]pyridazin-3-amine] | 54 | – | 14.1
6 | Cc1nnc2sc3c(NCc4ccoc4)nn(C)c3c2c1C [Compound 7, N-(furan-3-ylmethyl)-1,7,8-trimethyl-1H-pyrazolo[3′,4′:4,5]thieno[2,3-c]pyridazin-3-amine] | 60 | – | 38.9
7 | Cc1nnc2sc3c(NC4CN(C(=O)OC(C)(C)C)C4)nn(C)c3c2c1C [Compound 9, tert-butyl 3-((1,7,8-trimethyl-1H-pyrazolo[3′,4′:4,5]thieno[2,3-c]pyridazin-3-yl)amino)azetidine-1-carboxylate] | 58 | – | 25.1
8 | Cc1nnc2sc3c(NCc4cccs4)nn(C)c3c2c1C [Compound 10, 1,7,8-trimethyl-N-(thiophen-2-ylmethyl)-1H-pyrazolo[3′,4′:4,5]thieno[2,3-c]pyridazin-3-amine] | 53 | – | 30.9
9 | Cc1ncsc1CNc1nn(C)c2c1sc1nnc(C)c(C)c12 [Compound 11, 1,7,8-trimethyl-N-((4-methylthiazol-5-yl)methyl)-1H-pyrazolo[3′,4′:4,5]thieno[2,3-c]pyridazin-3-amine] | 56 | 55 | –
10 | Cc1cc(CNc2nn(C)c3c2sc2nnc(C)c(C)c23)no1 [Compound 12, 1,7,8-trimethyl-N-((5-methylisoxazol-3-yl)methyl)-1H-pyrazolo[3′,4′:4,5]thieno[2,3-c]pyridazin-3-amine] | 55 | 500 | –
11 | Cc1nnc2sc3c(NCc4ccc5c(c4)OCCO5)nn(C)c3c2c1C [Compound 13, N-((2,3-dihydrobenzo[b][1,4]dioxin-6-yl)methyl)-1,7,8-trimethyl-1H-pyrazolo[3′,4′:4,5]thieno[2,3-c]pyridazin-3-amine] | 55 | – | 12.9
12 | Cc1nnc2sc3c(NCC4CCN(C(=O)OC(C)(C)C)CC4)nn(C)c3c2c1C [Compound 21, tert-butyl 4-(((1,7,8-trimethyl-1H-pyrazolo[3′,4′:4,5]thieno[2,3-c]pyridazin-3-yl)amino)methyl)piperidine-1-carboxylate] | 42 | 710 | –
13 | Cc1nnc2sc3c(NCC4CCNCC4)nn(C)c3c2c1C [Compound 22, 1,7,8-trimethyl-N-(piperidin-4-ylmethyl)-1H-pyrazolo[3′,4′:4,5]thieno[2,3-c]pyridazin-3-amine] | – | > 10000 | –
14 | CC(=O)N1CCC(CNc2nn(C)c3c2sc2nnc(C)c(C)c23)CC1 [Compound 23, 1-(4-(((1,7,8-trimethyl-1H-pyrazolo[3′,4′:4,5]thieno[2,3-c]pyridazin-3-yl)amino)methyl)piperidin-1-yl)ethanone] | 44 | 1800 | –

Next, values leading:

Row | Emax at 30 µM [%] | EC50 (read-out: EC50) [nM] | EC50 (read-out: pEC50 (converted)) [nM] | Structure (SMILES)
15 | 56 | 97 | – | Cc1nnc2sc3c(NC4CCSC4)nn(C)c3c2c1C (stereo not drawn) [Compound 6, 1,7,8-trimethyl-N-(tetrahydrothiophen-3-yl)-1H-pyrazolo[3′,4′:4,5]thieno[2,3-c]pyridazin-3-amine]
16 | 55 | 400 | – | Cc1nnc2sc3c(NC4CCOC4)nn(C)c3c2c1C (stereo not drawn) [Compound 8, 1,7,8-trimethyl-N-(tetrahydrofuran-3-yl)-1H-pyrazolo[3′,4′:4,5]thieno[2,3-c]pyridazin-3-amine]
17 | 69 | 170 | – | CC(=O)N1CC(Nc2nn(C)c3c2sc2nnc(C)c(C)c23)C1 [Compound 14, 1-(3-((1,7,8-trimethyl-1H-pyrazolo[3′,4′:4,5]thieno[2,3-c]pyridazin-3-yl)amino)azetidin-1-yl)ethanone]
18 | 64 | 63 | – | Cc1nnc2sc3c(NC4CN(S(C)(=O)=O)C4)nn(C)c3c2c1C [Compound 15, 1,7,8-trimethyl-N-(1-(methylsulfonyl)azetidin-3-yl)-1H-pyrazolo[3′,4′:4,5]thieno[2,3-c]pyridazin-3-amine]
19 | 51 | 1400 | – | Cc1nnc2sc3c(NC4CNC4)nn(C)c3c2c1C [Compound 16, N-(azetidin-3-yl)-1,7,8-trimethyl-1H-pyrazolo[3′,4′:4,5]thieno[2,3-c]pyridazin-3-amine]
20 | 47 | 210 | – | Cc1nnc2sc3c(NC4CCN(C(=O)OC(C)(C)C)CC4)nn(C)c3c2c1C [Compound 17, tert-butyl 4-((1,7,8-trimethyl-1H-pyrazolo[3′,4′:4,5]thieno[2,3-c]pyridazin-3-yl)amino)piperidine-1-carboxylate]
21 | 31 | 5200 | – | Cc1nnc2sc3c(NC4CCNCC4)nn(C)c3c2c1C [Compound 18, 1,7,8-trimethyl-N-(piperidin-4-yl)-1H-pyrazolo[3′,4′:4,5]thieno[2,3-c]pyridazin-3-amine]
22 | 58 | 1100 | – | Cc1nnc2sc3c(NC4CCN(S(C)(=O)=O)CC4)nn(C)c3c2c1C [Compound 19, 1,7,8-trimethyl-N-(1-(methylsulfonyl)piperidin-4-yl)-1H-pyrazolo[3′,4′:4,5]thieno[2,3-c]pyridazin-3-amine]
23 | 51 | 1800 | – | CC(=O)N1CCC(Nc2nn(C)c3c2sc2nnc(C)c(C)c23)CC1 [Compound 20, 1-(4-((1,7,8-trimethyl-1H-pyrazolo[3′,4′:4,5]thieno[2,3-c]pyridazin-3-yl)amino)piperidin-1-yl)ethanone]
